Measured values as given in patent US6544551B1, “Solid pharmaceutical compositions containing hexedecylphosphocholine (miltefosine) for oral administration in the treatment of leishmaniasis” (priority 1998, dated 2003).

Legend:
[1] = tested on: visceral leishmaniasis (VL); assay: Clinical study of oral miltefosine capsules in human visceral leishmaniasis: efficacy; format: in vivo
Protocol: (§1) Miltefosine (MILT, hexadecylphosphocholine, ASTA Medica), an antineoplastic alkylphospholipid, is active in experimental visceral leishmaniasis (VL). To test oral MILT in human VL, 30 male Indian patients from Bihar (age>14 years; 18 of the 30 were antimony (Sb) failures) with splenic aspirate-positive VL were treated in 6 groups of 5 patients each (Groups A-F) for 28 days with escalating doses by oral administration of capsules according to example 1: (A) 50 mg once qod (qod=[…]), (B) 50 mg BID god (BID=twice per day), and then daily using 50 mg (C) BID (100 mg/d), (D) TID (150 mg/d), (E) QID (200 mg/d), and (F) 5×per day (250 mg/d).

[2] = Clinical study of oral miltefosine capsules in human visceral leishmaniasis: tolerability and safety; format: in vivo
Protocol: as §1

[3] = Hygroscopicity (incorporation of water molecules); format: physicochemical
[4] = tested on: experimental visceral leishmaniasis (VL); details: in vivo; cited from earlier work
[5] = Day 14 results in 30 patients, Groups A-F together, oral
[6] = Group A: 50 mg once qod, 28 days, oral
[7] = Group B: 50 mg BID qod, 28 days, oral
[8] = Group D: 50 mg TID (150 mg/d), 28 days, oral

## CCCCCCCCCCCCCCCCOP(=O)([O-])OCC[N+](C)(C)C [Miltefosine, hexadecylphosphocholine]
[1]; 30 male Indian VL patients, Groups A-F together, oral capsules according to example 1, 28 days, day 7
  patients afebrile by day 7: 16 patients
[1]; Day 14, Groups A-F together, oral
  all 3 responses (afebrile, decreased spleen size, negative aspirate) = apparent cures, day 14: 21 of 30
[1]; [5]
  afebrile, day 14: 25 patients
  decreased spleen size, day 14: 25 patients
  negative spleenic aspirates (apparent parasitologic cure), day 14: 28 patients
[1]; Day 28, 29 patients
  apparent cures on day 28 (percent of patients): 100%
[1]; Day 28, Groups A-F together, including 4 patients with less than 10 days of therapy
  apparent cures on day 28: 29 of 29
[1]; [6]
  cure (no relapse, parasite-free bone marrow aspirate) within 6 months, Group A: 2/5
  relapsed within 6 months, Group A: 3/5
[1]; [7]
  cure (no relapse, parasite-free bone marrow aspirate) within 6 months, Group B: 2/5
  relapsed within 6 months, Group B: 3/5
[1]; Group C: 50 mg BID (100 mg/d), 28 days, oral
  cure (no relapse, parasite-free bone marrow aspirate) within 6 months, Group C: 5/5
[1]; [8]
  cure (no relapse, parasite-free bone marrow aspirate) within 6 months, Group D: 4/5
  relapsed within 6 months, Group D: 1/5
[1]; Group E: 50 mg QID (200 mg/d), 28 days, oral
  cure (no relapse, parasite-free bone marrow aspirate) within 6 months, Group E: 5/5
[1]; all groups, within 6 months
  apparent cures relapsed within 6 months: 7 of 29
[1]; all groups, within 6 months, 1 patient still in follow up
  apparent cure (no relapse, parasite-free bone marrow aspirate) within 6 months: 21 of 26
[1]; of the first 21 patients with definite cure
  patients with definite cure who had failed prior therapy with antimony: 14 patients
[2]; Group F (250 mg/d), died on day 21, drug stopped on day 19, severe vomiting and diarrhea, dehydration, renal failure
  patients died: 1 patient
[2]; human, in vivo
  hematologic toxicity: no hematologic toxicity
  mild vomiting or diarrhea lasting 3-7 days: most patients
[2]; male, human, in vivo, 28 days
  patients removed because of vomiting, Group F: 3
[2]; oral, human VL patients, 28 days
  maximum tolerated daily dose: 200 mg/day
[3]
  increase in weight by incorporation of water molecules: up to 30%
[4]
  activity in experimental visceral leishmaniasis: active
